US5624923A, “Tricyclic diazepine vasopressin antagonists and oxytocin antagonists” (priority 1995, dated 1997)
Read-outs that look alike come from different tables or passages of the source.

Tests used:
[1] = target: T1, V1 Receptor Subtype in Human Platelet (Homo sapiens, UniProt P37288); assay: Binding to Vasopressin V1 receptor subtype in Human Platelet Membranes; conditions: for IC50: human platelet membranes; for inhibition at 1 µM: 1.5 h, human platelet
T1 construct: tissue Hudson Valley Blood Services, Westchester Medical Center, Valhalla, N.Y; host or cells: human platelets (frozen platelet rich plasma)
Method: Radioligand Binding Experiments with Human Platelet Membranes (a) Platelet Membrane Preparation: Frozen platelet rich plasma (PRP), (Platelet Source: Hudson Valley Blood Services, Westchester Medical Center, Valhalla, N.Y.) are thawed to room temperature. The tubes containing the PRP are centrifuged at 16,000×g for 10 min. at 4° C. and the supernatant fluid discarded. […] The suspension is recentrifuged at 16,000× g for 10 min. This washing step is repeated one more time. The wash discarded and the lysed pellets homogenized in low ionic strength buffer of Tris.HCl, 5.0 mM, pH 7.5 containing 5.0 mM EDTA. The homogenate is centrifuged at 39,000× g for 10 min. The resulting pellet is resuspended in Tris. […] The final pellet is resuspended in 50.0 mM Tris. HCl buffer pH 7.4 containing 120 mM NaCl and 5.0 mM KCl to give 1.0-2.0 mg protein per ml of suspension. […] Platelet Membranes […] Then add 20 μl of [^3 H]Ligand (Manning or […] Vasopressin), to give final concentrations ranging from 0.01 to 10.0 nM. Initiate the binding by adding 80.0 μl of platelet suspension (approx. 100 μg protein). Mix all reagents by pipetting the mixture up and down a few times. Non specific binding is measured in the presence of 1.0 μM of unlabeled ligand (Manning or […] Vasopressin). Let the mixture stand undisturbed at room temperature for ninety (90) min. Upon this time, rapidly filter off the incubate under vacuum suction over GF/B filters, using a Brandel Harvester. Determine the radioactivity caught on the filter disks by the addition of liquid scintillant and counting in a liquid scintillator.

[2] = target: T2, Human V2 Vasopressin Receptor (Homo sapiens, UniProt P30518); assay: Binding to Membranes of Mouse Fibroblast Cell Line (LV-2) Transfected with the cDNA Expressing the Human V2 Vasopressin Receptor
T2 construct: expressed in transfected cells; host or cells: mouse fibroblast cell line LV-2
Method: Binding to Membranes of Mouse Fibroblast Cell Line (LV-2) Transfected with the cDNA Expressing the Human V2 Vasopressin Receptor
Flasks of 175 ml capacity, containing attached cells grown to confluence, are cleared of culture medium by aspiration. The flasks containing the attached cells are rinsed with 2×5 ml of phosphate buffered saline (PBS) and the liquid aspirated off each time. Finally, 5 ml of an enzyme free dissociation Hank's based solution (Specialty Media, Inc., Lafayette, N.J.) is added and the flasks are left undisturbed for 2 min. The content of all flasks is. poured into a centrifuge tube and the cells pelleted at 300× g for 15 min. The Hank's based solution is aspirated off and the cells homogenized with a polytron at setting #6 for 10 sec in 10.0 mM Tris.HCl buffer, pH 7.4 containing 0.25M sucrose and 1.0 mM EDTA. The homogenate is centrifuged at 1500× g for 10 min to remove ghost membranes. The supernatant fluid is centrifuged at 100,000× g for 60 min. to pellet the receptor protein. Upon completion, the pellet is resuspended in a small volume of 50.0 mM Tris. HCl buffer, pH 7.4. The protein content is determined by the Lowry method and the receptor membranes are suspended in 50.0 mM Tris.HCl buffer containing 0.1 mM phenylmethylsulfonylfluoride (PMSF) and 0.2% bovine serum albumin (BSA) to give 2.5 mg receptor protein per ml of suspension.
Arginine^8, vasopressin (S.A. 75.0 Ci/mmole) at 0.8 nM and the reaction initiated by the addition of 80.0 μl of tissue membranes (200.0 μg tissue protein). The plates are left undisturbed on the bench top for 120 min to reach equilibrium. Non specific binding is assessed in the presence of 1.0 μM of unlabeled ligand, added in 20 μl volume. For test compounds, these are solubilized in 50% dimethylsulfoxide (DMSO) and added in 20.0 μl volume to a final incubation volume of 200 μl. Upon completion of binding, the content of each well is filtered off, using a Brandel® cell Harvester (Gaithersburg, Md.). The radioactivity trapped on the filter disk by the ligand-receptor complex is assessed by liquid scintillation counting in a Packard LS Counter, with an efficiency of 65% for tritium. The data are analyzed for IC50 values by the LUNDON-2 program for competition (LUNDON SOFTWARE, Ohio).

[3] = target: T3, Rat Hepatic V1 Receptors (Rattus norvegicus, UniProt P30560); assay: Binding Assay to Rat Hepatic V1 Receptors
T3 construct: Rat liver plasma membranes expressing the vasopressin V1 receptor subtypes; from tissue; host or cells: rat liver plasma membranes

[4] = target: T4, Rat Kidney Medullary V2 Receptors (Rattus norvegicus, UniProt Q00788); assay: Binding Assay to Rat Kidney Medullary V2 Receptors; conditions: 1 μM, rat
T4 construct: Medullary tissues from rat kidneys are dissected out; from tissue; host or cells: rat kidney medulla membranes
Procedure, shortened: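 Membranes were prepared from rat kidney medulla and stored in 50.0 mM Tris-HCl pH 7.4 with 0.2% BSA and 0.1 mM PMSF. Radioligand competition ran 120 min at bench temperature, with 1.0 μM unlabeled ligand defining nonspecific binding. Compounds were added in 50% DMSO; filtration, tritium scintillation counting, IC50 from competition analysis.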

[5] = LV-2 cell membranes, human V2, read-out: V2 IC50 (**)

T2 sequence (P30518 whole entry): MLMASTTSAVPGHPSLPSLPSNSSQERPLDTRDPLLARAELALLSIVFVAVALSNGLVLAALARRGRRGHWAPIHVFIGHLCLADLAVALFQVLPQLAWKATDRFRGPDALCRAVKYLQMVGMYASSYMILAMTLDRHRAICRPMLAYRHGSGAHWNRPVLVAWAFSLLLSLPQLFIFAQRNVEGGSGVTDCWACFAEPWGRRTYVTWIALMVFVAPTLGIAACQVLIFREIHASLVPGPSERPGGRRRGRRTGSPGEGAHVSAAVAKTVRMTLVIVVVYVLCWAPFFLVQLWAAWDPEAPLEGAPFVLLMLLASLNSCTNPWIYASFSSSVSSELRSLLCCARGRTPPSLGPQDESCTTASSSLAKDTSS
T1 sequence (P37288 whole entry): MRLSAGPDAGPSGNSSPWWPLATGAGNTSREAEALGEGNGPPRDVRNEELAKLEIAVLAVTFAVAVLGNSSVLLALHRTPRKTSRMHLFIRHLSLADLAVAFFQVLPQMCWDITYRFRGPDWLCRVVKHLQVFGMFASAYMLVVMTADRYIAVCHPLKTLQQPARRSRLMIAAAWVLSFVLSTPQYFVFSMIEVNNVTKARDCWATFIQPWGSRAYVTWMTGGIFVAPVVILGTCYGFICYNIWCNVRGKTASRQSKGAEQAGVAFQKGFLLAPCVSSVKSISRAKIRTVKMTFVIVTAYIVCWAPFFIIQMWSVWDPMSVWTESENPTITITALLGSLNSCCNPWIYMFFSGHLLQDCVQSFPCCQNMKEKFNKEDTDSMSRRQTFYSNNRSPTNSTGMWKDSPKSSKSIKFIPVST
T4 sequence (Q00788 whole entry): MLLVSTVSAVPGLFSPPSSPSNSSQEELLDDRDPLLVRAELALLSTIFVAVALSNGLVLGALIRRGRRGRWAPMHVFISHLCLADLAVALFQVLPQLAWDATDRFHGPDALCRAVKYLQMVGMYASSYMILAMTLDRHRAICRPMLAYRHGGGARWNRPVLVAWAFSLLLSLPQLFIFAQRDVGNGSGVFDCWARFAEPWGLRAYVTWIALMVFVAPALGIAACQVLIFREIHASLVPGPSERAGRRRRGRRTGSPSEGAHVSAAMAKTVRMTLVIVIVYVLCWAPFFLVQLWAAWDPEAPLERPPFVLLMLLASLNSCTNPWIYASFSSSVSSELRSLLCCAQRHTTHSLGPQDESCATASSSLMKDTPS
T3 sequence (P30560 whole entry): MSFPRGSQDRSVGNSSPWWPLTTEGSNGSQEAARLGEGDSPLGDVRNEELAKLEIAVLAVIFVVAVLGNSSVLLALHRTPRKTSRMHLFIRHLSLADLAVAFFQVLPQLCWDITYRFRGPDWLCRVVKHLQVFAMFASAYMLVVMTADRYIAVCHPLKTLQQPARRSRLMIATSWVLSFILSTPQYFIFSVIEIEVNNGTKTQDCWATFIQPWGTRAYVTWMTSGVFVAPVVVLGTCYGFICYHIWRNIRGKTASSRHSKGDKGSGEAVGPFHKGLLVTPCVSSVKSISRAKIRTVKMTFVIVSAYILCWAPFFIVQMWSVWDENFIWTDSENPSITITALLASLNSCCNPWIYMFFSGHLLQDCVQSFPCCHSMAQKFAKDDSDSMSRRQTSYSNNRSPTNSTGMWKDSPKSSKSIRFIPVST

Row | SMILES | IC50 [1] [nM] | IC50 [2, 5] [nM] | other results
1 | Cc1ccccc1C(=O)Nc1ccc(C(=O)N2Cc3cccn3Cc3ccccc32)c(C)c1 [Example 691, N-[4-(5H-pyrrolo[2,1-c][1,4]benzodiazepin-10(11H)-ylcarbonyl)-3-methylphenyl]-2-methylbenzamide] | 72 | 2.9 | 
2 | CCCCC(=O)Nc1ccc(C(=O)N2Cc3cccn3Cc3ccccc32)cc1 [Example 715] | 7.8 | 73 | 
3 | Cc1ccc(F)cc1C(=O)Nc1ccc(C(=O)N2Cc3cccn3Cc3ccccc32)c(C)c1 [Example 694, N-[4-(5H-pyrrolo[2,1-c][1,4]benzodiazepin-10(11H)-ylcarbonyl)-3-methylphenyl]-5-fluoro-2-methylbenzamide] |  |  | IC50 [3]: 120 nM; IC50 [2]: 1.7 nM
4 | CC(=O)Oc1ccccc1C(=O)Nc1ccc(C(=O)N2Cc3cccn3Cc3ccccc32)cc1 [Example 688, N-[4-(5H-pyrrolo[2,1-c][1,4]benzodiazepin-10(11H)-ylcarbonyl)phenyl]-2-(acetoxy)benzamide] | 69 | 34 | 
5 | O=C(Nc1ccc(C(=O)N2Cc3cccn3Cc3ccccc32)cc1)c1ccc(F)cc1Cl [Example 692, N-[4-(5H-pyrrolo[2,1-c][1,4]benzodiazepin-10(11H)-ylcarbonyl)phenyl]-2-chloro-4-fluorobenzamide] | 7 | 4 | 
6 | O=Cc1cccn1CC(=O)Nc1ccc(C(=O)N2Cc3cccn3Cc3ccccc32)cc1 [Example 685, N-[4-(5H-Pyrrolo[2,1-c][1,4]benzodiazepin-10(11H)-ylcarbonyl)phenyl]-2-(2-formyl-1-pyrrolo)acetamide] | 61 | 61 | 
7 | O=C(Nc1ccc(C(=O)N2Cc3cccn3Cc3ccccc32)c(Cl)c1)c1c(F)cccc1C(F)(F)F [Example 698, N-[4-(5H-pyrrolo[2,1-c][1,4]benzodiazepin-10(11H)-ylcarbonyl)-3-chloro-phenyl]-2-fluoro-6-(trifluoromethyl)benzamide] | 1300 | 13 | 
8 | O=C(Nc1ccc(C(=O)N2Cc3cccn3Cc3ccccc32)cc1)c1ccccc1O [Example 689, N-[4-(5H-pyrrolo[2,1-c][1,4]benzodiazepin-10(11H-)-ylcarbonyl)phenyl]-2-hydroxybenzamide] | 85 | 540 | 
9 | O=C(Nc1ccc(C(=O)N2Cc3cccn3Cc3ccccc32)cc1)c1cccc2ccccc12 [Example 690, N-[4-(5H-pyrrolo[2,1-c][1,4]benzodiazepin-10(11H)-ylcarbonyl)phenyl]-1-naphthylcarboxamide] | 220 | 22 | 
10 | Cc1c(F)cccc1C(=O)Nc1ccc(C(=O)N2CCc3cccn3-c3ccccc32)c(Cl)c1 [Example 611, N-[4-[(6,7-Dihydro-5H-pyrrolo[1,2-a]-[1,5]benzodiazepin-5-yl)carbonyl]-3-chlorophenyl]-3-fluoro-2-methyl-benzamide] | 500 | 4 | 
11 | COc1cc(NC(=O)c2ccccc2C)c(Cl)cc1C(=O)N1Cc2cccn2Cc2ccccc21 [Example 703, N-[4-(5H-pyrrolo[2,1-c][1,4]benzodiazepin-10(11H)-ylcarbonyl)-6-chloro-3-methoxyphenyl]-2-methylbenzamide] |  |  | inhibition at 1 µM [1]: 35%; inhibition at 1 µM ([2]; 1 μM, human V2): 87%
12 | CSc1ccc(Cl)c(C(=O)Nc2ccc(C(=O)N3Cc4cccn4Cc4ccccc43)c(Cl)c2)c1 [Example 700, N-[4-(5H-pyrrolo[2,1-c][1,4]benzodiazepin-10(11H)-ylcarbonyl)-3-chloro-phenyl]-2-chloro-5-(methylthio)benzamide] |  |  | inhibition at 1 µM [1]: 77%; inhibition at 10 µM ([2]; 10 μM, human V2): 100%
13 | Cc1ccc(C)c(C(=O)Nc2ccc(C(=O)N3Cc4cccn4Cc4ccccc43)c(Cl)c2)c1 [Example 701, N-[4-(5H-pyrrolo[2,1-c][1.4]benzodiazepin-10(11H)-ylcarbonyl)-3-chloro-phenyl]-2,5-dimethylbenzamide] | 340 |  | inhibition at 1 µM [4]: 100%
